This note sets out measurements from patent publication US20250326765A1, “PDE4B INHIBITOR AND USE THEREOF” (XIZANG HAISCO PHARMACEUTICAL CO., LTD., priority 2022, published 2025).

The target in one data set is T1, PDE4B1 (Homo sapiens, UniProt Q07343).
T1 construct: purchased BPS 60041
Nature of the data set: Effect of compounds on PDE4B1 activity (IMAP fluorescence polarization kit). The data set is classed as biochemical. To be noted: class symbols. The protocol: The IMAP Reaction Buffer containing 0.1% BSA (5×) in the kit was diluted into a 1-fold reaction buffer containing 1 mM DTT. 0.12 nM PDE4B1 (BPS, Cat #60041) was added to the 1-fold reaction buffer to form a 2-fold enzyme solution. 10 μL of the 2-fold enzyme solution was added to wells of a 384-well reaction plate. For the negative control well, 10 μL of the 1-fold reaction buffer was used instead of the enzyme solution. Centrifugation at 1000 rpm for 1 minute and incubation at room temperature for 15 minutes were carried out. 0.2 uM FAM-labeled cAMP (FAM-cAMP, Molecular Device, Cat #R7506) was added to the 1-fold reaction buffer to form a 2-fold substrate solution. 10 μL of the 2-fold substrate solution was added to each well of the 384-well reaction plate. Centrifugation at 1000 rpm for 1 minute was carried out. A reaction was carried out at room temperature for 20 minutes. IMAP Progressive Binding Buffer A (5×), IMAP Progressive Binding Buffer B (5×), and IMAP Progressive Binding Reagent (provided by IMAP FP IPP Explorer Kit) were prepared into a reaction stop solution according to the instructions for use. 60 μL of an […] reaction stop solution was added to each well of the 384-well reaction plate to stop the reaction, and the reaction product was centrifuged at 1000 rpm for 1 minute. Incubation at room temperature in the dark for 60 minutes was carried out. The mP values (Ex480/Em535 (s), Em535 (p)) were read by a microplate reader (Envision).
FP was usually represented by mP value. mP value for FP measurement=1000*(S−G*P)/(S+G*P) • S: fluorescence intensity in parallel direction • P: fluorescence intensity in perpendicular direction • G: G factor=1
(§1) [formula] • mP(sample): mP of the test compound in a reaction well • mP(negative control): mP in the negative control well • mP(positive control): mP in the positive control well
According to the calculated inhibition rate at each concentration, the IC50 value of each compound was calculated by XLFit excel add-in version 5.4.0.8 software.
Y=Bottom+(Top−Bottom)/(1+(IC50/X)^HillSlope) Fitting formula: […]
(Polarisation of emitted light reports the rotation of a fluorescent probe.)

Another data set deals with T2, PDE4D2 (Homo sapiens, UniProt Q08499).
T2 construct: purchased BPS Bioscience 60345
In words: Effect of compounds on PDE4D2 activity (fluorescence polarization kit). The data set is classed as biochemical. The settings on record: class symbols. The protocol: The effect of compounds on PDE4D2 activity was detected by a fluorescence polarization kit (BPS Bioscience, Catalog #60345). During the reaction, 12.5 μL of 0.272 ng/well of an enzyme (final concentration: 0.068 ng/well) and 12.5 μL of the compound diluted in a gradient manner (DMSO concentration: 4%) were first pre-incubated at room temperature for 15 minutes, the same volume of the enzyme at the same concentration and 12.5 μL of PDE buffer containing 4% DMSO were added to the positive control well, and 25 μL of PDE buffer containing 2% DMSO was added to the negative control well. After completion, 25 μL of […] FAM-Cyclic-3′,5′-AMP (final concentration: […]) was added to each well, fully mixed, and then incubated at room temperature with slow shaking for 30 minutes. The Binding Agent was diluted with the Binding Agent Diluent (cAMP) at a ratio of 1:100 for later use, 100 μl/well of the Binding Agent dilution was taken and added to all wells of the test plate and incubated at room temperature with slow shaking for 1 hour.
After the incubation was complete, BMG LRBTECH microplate reader was used for FP detection, with Excitation at 485 nm and Emission at 520 nm. FP was usually represented by mP value.
[formula] • I∥ (S520): fluorescence intensity in parallel direction • I⊥ (P520): fluorescence intensity in perpendicular direction • G: G factor=1
as §1
According to the calculated inhibition rate at each concentration, the IC50 value of each compound was calculated by GraphPad Prism 8 software.

Data set [1] in a line: Pharmacokinetic test in mice. The format is in vivo, ICR mice. How it is done: 5.1 Experimental animals: Male ICR mice, 20-25 g, 6 mice/compound. Purchased from Chengdu Ddossy Experimental Animals Co., Ltd.
5.2 Experimental design: On the day of the experiment, 42 ICR mice were randomly grouped according to their body weights. The animals were fasted with water available for 12-14 h one day before administration and fed 4 h after administration.
Before and after administration, 0.06 mL of blood was taken from the orbit under isoflurane anesthesia and placed in an EDTAK2 centrifuge tube for centrifugation at 5000 rpm at 4-C for 10 min, followed by plasma collection. The blood collection time points for the intravenous group and intragastric group were both 0 m, 5 mi, 15 mi, 30 mi, 1 h, 2 h, 4 h, 6 h, 8 h, and 24 h. Before analysis and detection, all the samples were stored at −80° C., and the samples were subjected to quantitative analysis using LC-MS/MS.

In data set [2] the target is T3, hERG potassium ion channel (Homo sapiens, UniProt Q12809).
T3 construct: expressed in transfected cells
Nature of the data set: Test for hERG potassium ion channel (manual patch-clamp, CHO cells). The data set is classed as cell-based. The settings on record: CHO cells stably expressing hERG, whole cell patch-clamp; read-out: IC50, inhibition of hERG potassium channel current. From the text: Experimental Platform: Electrophysiological Manual Patch-Clamp System
Cell line: Chinese hamster ovary (CHO) cell line stably expressing hERG potassium ion channel
Experimental method: CHO (Chinese Hamster Ovary) cells stably expressing hERG potassium channel were subjected to a whole cell patch-clamp technique to record the hERG potassium channel current at room temperature. The glass microelectrode was made of a glass electrode blank (BF150-86-10, Sutter) by a puller. The tip resistance after filling the liquid in the electrode was about 2-5 MQ. The glass microelectrode can be connected to the patch-clamp amplifier by inserting the glass microelectrode into an amplifier probe. The clamping voltage and data recording were controlled and recorded by the pClamp 10 software through a computer. The sampling frequency was 10 kHz, and the filtering frequency was 2 kHz. After the whole cell records were obtained, the cells were clamped at −80 mV, and the step voltage that induced the hERG potassium current (IhERG) was depolarized from −80 mV to +20 mV for 2 s, then repolarized to −50 mV, and returned to −80 mV after 1 s. This voltage stimulation was given every 10 s, and the administration process was started after the hERG potassium current was confirmed to be stable (at least 1 minute). The compound was administered for at least 1 minute at each test concentration, and at least 2 cells (n: 2) were tested at each concentration.
Data processing: Data analysis processing was carried out by using pClamp 10, GraphPad Prism 5, and Excel software. The degree of inhibition on the hERG potassium current (peak value of hERG tail current induced at −50 mV) at different compound concentrations was calculated by the following formula:
[formula] • where Inhibition % represents the percentage inhibition of the compound on the hERG potassium current, and I and Io represent the amplitude of the hERG potassium current after and before administration, respectively.
Compound IC50 was calculated using GraphPad Prism 5 software by fitting according to the following equation: […]
In general terms: The hERG channel carries a current that helps repolarise heart muscle cells.

Setting [3] is: male, ICR, mouse, iv, plasma, i.v. (5 mg/kg).
Setting [4] is: male, ICR, mouse, po, plasma, i.g. (10 mg/kg).

SMILES strings stand for the structures. A value given as a limit tells only on which side of the number the result lay.

T2 sequence (Q08499 303-809): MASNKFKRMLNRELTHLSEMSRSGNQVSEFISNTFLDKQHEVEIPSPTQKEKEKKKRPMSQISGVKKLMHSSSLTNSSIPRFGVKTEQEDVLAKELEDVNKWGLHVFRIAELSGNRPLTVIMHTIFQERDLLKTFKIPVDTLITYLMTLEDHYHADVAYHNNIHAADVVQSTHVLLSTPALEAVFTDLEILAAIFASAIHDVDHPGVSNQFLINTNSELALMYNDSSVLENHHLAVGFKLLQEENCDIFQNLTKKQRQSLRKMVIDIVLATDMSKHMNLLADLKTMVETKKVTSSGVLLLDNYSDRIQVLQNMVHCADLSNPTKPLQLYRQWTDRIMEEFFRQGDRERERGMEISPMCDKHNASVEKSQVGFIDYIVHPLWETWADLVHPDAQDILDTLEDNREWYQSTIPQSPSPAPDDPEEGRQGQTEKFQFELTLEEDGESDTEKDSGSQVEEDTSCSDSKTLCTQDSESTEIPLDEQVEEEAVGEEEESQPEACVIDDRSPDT
T1 sequence (Q07343 whole entry): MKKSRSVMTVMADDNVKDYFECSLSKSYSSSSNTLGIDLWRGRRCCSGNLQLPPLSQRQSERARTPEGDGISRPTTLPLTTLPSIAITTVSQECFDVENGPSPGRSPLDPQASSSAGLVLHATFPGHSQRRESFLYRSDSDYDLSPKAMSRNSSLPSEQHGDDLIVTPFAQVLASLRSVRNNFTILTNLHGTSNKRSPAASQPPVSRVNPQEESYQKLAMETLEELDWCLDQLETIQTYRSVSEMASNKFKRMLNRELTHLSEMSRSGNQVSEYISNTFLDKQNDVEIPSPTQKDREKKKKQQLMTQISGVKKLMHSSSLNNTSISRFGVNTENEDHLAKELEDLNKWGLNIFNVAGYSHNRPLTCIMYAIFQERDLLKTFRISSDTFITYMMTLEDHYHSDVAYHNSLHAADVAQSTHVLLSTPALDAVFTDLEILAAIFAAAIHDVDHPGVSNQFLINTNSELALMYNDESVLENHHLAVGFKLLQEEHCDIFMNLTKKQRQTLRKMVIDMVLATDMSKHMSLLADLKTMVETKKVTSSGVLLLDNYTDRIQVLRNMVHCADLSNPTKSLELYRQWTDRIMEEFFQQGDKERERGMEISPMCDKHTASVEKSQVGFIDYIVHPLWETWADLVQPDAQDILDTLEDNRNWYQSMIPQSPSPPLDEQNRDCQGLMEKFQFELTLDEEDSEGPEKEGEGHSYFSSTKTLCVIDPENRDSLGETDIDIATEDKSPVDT
T3 sequence (Q12809 whole entry): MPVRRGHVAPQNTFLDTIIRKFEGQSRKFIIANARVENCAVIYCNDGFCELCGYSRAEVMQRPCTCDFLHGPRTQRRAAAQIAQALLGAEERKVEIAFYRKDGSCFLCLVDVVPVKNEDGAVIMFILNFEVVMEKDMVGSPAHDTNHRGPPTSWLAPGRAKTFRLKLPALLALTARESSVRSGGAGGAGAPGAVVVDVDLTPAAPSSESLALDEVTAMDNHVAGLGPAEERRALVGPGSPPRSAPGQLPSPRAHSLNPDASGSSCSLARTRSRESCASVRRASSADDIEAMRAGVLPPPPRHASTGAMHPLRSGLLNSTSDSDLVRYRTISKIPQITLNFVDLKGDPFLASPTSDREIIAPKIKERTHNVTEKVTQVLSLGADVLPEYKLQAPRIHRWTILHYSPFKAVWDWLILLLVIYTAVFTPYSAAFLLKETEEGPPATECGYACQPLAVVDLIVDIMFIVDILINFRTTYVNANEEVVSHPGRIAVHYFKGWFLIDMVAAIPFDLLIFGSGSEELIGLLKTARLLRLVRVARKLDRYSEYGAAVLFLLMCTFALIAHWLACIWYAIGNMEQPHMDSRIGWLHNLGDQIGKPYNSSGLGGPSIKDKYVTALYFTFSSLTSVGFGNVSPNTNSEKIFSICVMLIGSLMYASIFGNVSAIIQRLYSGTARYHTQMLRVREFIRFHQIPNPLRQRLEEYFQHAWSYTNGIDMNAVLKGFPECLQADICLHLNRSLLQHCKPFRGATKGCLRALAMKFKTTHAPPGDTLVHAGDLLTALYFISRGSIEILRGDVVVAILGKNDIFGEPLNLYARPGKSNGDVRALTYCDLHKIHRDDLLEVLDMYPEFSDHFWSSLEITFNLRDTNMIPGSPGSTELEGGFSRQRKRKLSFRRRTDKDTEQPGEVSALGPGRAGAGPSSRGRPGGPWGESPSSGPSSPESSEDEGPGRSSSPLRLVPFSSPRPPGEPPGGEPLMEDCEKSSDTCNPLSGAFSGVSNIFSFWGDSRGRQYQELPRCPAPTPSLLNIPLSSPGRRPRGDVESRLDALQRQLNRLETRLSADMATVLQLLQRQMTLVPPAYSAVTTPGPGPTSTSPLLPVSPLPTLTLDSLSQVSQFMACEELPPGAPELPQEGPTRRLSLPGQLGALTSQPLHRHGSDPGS

As to `[O-][S@+]1CCc2nc(N3CC=C(c4ncc(Cl)cn4)CC3)nc(NC3(CO)CCC3)c21` [Compound 28], the IC50 (commonly the concentration that inhibits the measured activity by half) on PDE4B1 is under 0.01 µM. The IC50 at PDE4D2 is under 0.01 µM. Moreover, in data set [1] (i.g. (10 mg/kg)), the F is on record as 71.4 ± 11%. Also, in data set [1] (setting [3]), the AUC(0-t) (in general, the area under the concentration-time curve up to a stated or last time point) came out at 9210 ± 2070 ng·h/mL; the clearance (usually the volume of plasma or blood freed of the substance per unit of time) is 4.67 ± 1.2 mL/min/kg; the half-life (as a rule, the time needed for the level to fall by half in the phase considered) is 3.59 ± 0.19 h. Besides, the Vd in data set [1] (male, ICR, mouse, iv, plasma, i.v. (5 mg/kg), read-out: Vdss) turned out to be 1.31 ± 0.28 L/kg. In data set [1] (setting [4]), the AUC(0-t) is 26300 ± 4150 ng·h/mL and the half-life was 7.04 ± 1.8 h.

Take `[O-][S@+]1CCc2nc(N3CCC=C(c4ncc(Cl)cn4)CC3)nc(NC3(CO)CCC3)c21` [Compound 34]: the IC50 against PDE4B1 is under 0.01 µM; on PDE4D2 it was under 0.01 µM; in data set [2], 13.6 µM.
